Reference: US11149024B2, “Synthesis of Mcl-1 inhibitor” (ASTRAZENECA AB, priority 2017, dated 2021)

Columns and labels:
Format in all cases: cell-based
[1] = test system: MOLP-8 (multiple myeloma) cells; assay: Caspase Activity assay (Caspase-Glo 3/7), MOLP-8; settings: Homo sapiens; MOLP-8 cells, 6 h treatment, induction of apoptosis
Description: (§1) Caspase Activity assay: This is a cell assay to measure the induction of apoptosis in MOLP-8 (multiple myeloma), KMS-12-BM (multiple myeloma), MV4; 11 (acute myeloid leukemia), and NCI-H23 (non-small cell lung cancer) cells after 6 h treatment with Mcl-1 inhibitors. On the first day, 3000 (MOLP-8, KMS-12-BM, MV4; 11) or 1250 (NCI-H23) cells/well were seeded with 50 μL of growth media (IMDM+10% FBS+2 mM L-Glu for MV4; 11 and RPMI-1640+10% FBS+2 mM L-Glu for all others) in 384-well white microplates, and incubated overnight (37° C., 5% C02, 80% RH). On the second day, the cells were treated with Compound I using an ECHO acoustic liquid handler (10 point half-log serial dilution, 31.5 μM top concentration, 0.3% final DMSO concentration). After 6 h incubation (37° C., 5% C02, 80% RH), 25 μL of Caspase-Glo 3/7 reagent (Promega) was added into each well, and plates were incubated at room temperature for 30 min protected from light. Luminescence was recorded using an Infinite M200 microplate reader (Tecan) with a 100 ms integration time.

[2] = test system: NCI-H23 (non-small cell lung cancer) cells; assay: Caspase Activity assay (Caspase-Glo 3/7), NCI-H23; settings: Homo sapiens, 6 h treatment, induction of apoptosis
Description: as §1

[3] = test system: MV4; 11 (acute myeloid leukemia) cells; assay: Caspase Activity assay (Caspase-Glo 3/7), MV4; 11; settings: Homo sapiens, 11 cells, 6 h treatment, induction of apoptosis
Description: as §1

[4] = test system: KMS-12-BM (multiple myeloma) cells; assay: Caspase Activity assay (Caspase-Glo 3/7), KMS-12-BM; settings: Homo sapiens; KMS-12-BM cells, 6 h treatment, induction of apoptosis
Description: as §1

For `Cc1c2c(nn1C)CSCc1cc(n(C)n1)CSc1cc(c3ccccc3c1)OCCCc1c(C(=O)O)n(C)c3c-2c(Cl)ccc13` (atropisomer, axis not shown; (Ra)) [Compound I, (Ra)-(+)-17-chloro-5,13,14,22-tetramethyl-28-oxa-2,9-dithia-5,6,12,13,22-pentaazaheptacyclo[27.7.1.1^4,7.0^11,15.0^16,21.0^20,24.0^30,35]octatriaconta-1(37),4(38),6,11,14,16,18,20,23,29,31,33,35-tridecaene-23-carboxylic acid], which EC50 [1] is on record?
The EC50 was 30 nM.

What about the EC50 [2] of the same molecule?
The EC50 was 193 nM.

And the EC50 [3]?
The EC50 was 20 nM.

What about the EC50 [4] of the same molecule?
The EC50 was 43 nM.
